From patent US7442706B2, “Methods for treating sarcopenia with a growth hormone secretagogue” (priority 2006, dated 2008)

Test system: GH
Assay: 24-h mean GH levels, blood sampled every 10 minutes for 24 hours, chemiluminescence assay, 2-year placebo-controlled trial
Type: in vivo, human
Details: for 24-h mean GH, mean (range) fold-change / 24-h mean GH level in a person: 25 mg p.o. daily; for 24-h mean GH, mean (range) fold-change: N=43, ratio of geometric means; for 24-h mean GH level in a person: baseline 0.37
Method: Sixty-five healthy men and women (±HRT) ages 60-81 years were enrolled in a 2-year study of MK-677 (25 mg p.o. daily) or placebo. In addition to GH and IGF-I, the primary endpoints were fat-free mass (FFM), by 4-compartment model and DXA, and abdominal visceral fat (AVF) by CT. Secondary endpoints included isokinetic strength, function and quality of life (QoL); all endpoints were assessed at baseline and every 6 months, with frequent monitoring for adverse effects.
This NIH-funded study was approved by the General Clinical Research Center (GCRC) and the University of Virginia Institutional Review Boards. All subjects gave written informed consent. A two-year, double-blind, placebo-controlled modified crossover trial of once-daily administration of an oral GH secretogogue (MK-677, 25 mg) to healthy older adults was performed.
During the first year, subjects were randomized to MK-677 or placebo treatment. In each of 3 groups (23 men, 25 women on hormone replacement therapy (HRT) and 17 women not on HRT), ⅔ received MK-677 and ⅓ received placebo. At the end of year 1, the subjects who received placebo were switched to MK-677 treatment (N= 2/0 in year 2); subjects who received MK-677 for the first year were randomized to continue MK-677 (N=20) or to placebo (N=19).
Growth hormone (GH) concentrations and pulsatile characteristics. Blood samples were obtained every 10 minutes for 24 hours for measurement of GH in a sensitive chemiluminescence assay (2); endogenous GH secretory dynamics were assessed using an automated multiple-parameter deconvolution method as previously reported (1;3).
The primary outcome data for the 6- and 12-month changes in FFM and AVF as well as for IGF-I and GH were analyzed via repeated measures ANCOVA. The FFM and AVF data were analyzed on the same scale as they were measured, while the IGF-I and GH data were transformed to the natural logarithmic scale before conducting the statistical analyses so that the variance and normality assumptions of the linear model were not violated.
Since the FFM and AVF data were analyzed on the same scale as initially measured, the 6- and 12-month changes are reported as a difference between arithmetic means; changes in IGF-I and GH data analyzed on the natural algorithmic scale are reported as a ratio of geometric means.

Compound: CC(C)(N)C(=O)N[C@H](COCc1ccccc1)C(=O)N1CCC2(CC1)CN(S(C)(=O)=O)c1ccccc12.CS(=O)(=O)O [MK-677, N-[1(R)-[(1,2-dihydro-1-methanesulfonylspiro[3H-indole-3,4′-piperidin]-1′-yl)carbonyl]-2-(phenylmethyloxy)ethyl]-2-amino-2-methylpropanamide methanesulfonate]
- 24-h mean GH, mean (range) fold-change (6 months): 1.9 (1.6-2.2) fold
- 24-h mean GH level in a person (6 months): 1.0 µg/L
- 24-h mean GH, mean (range) fold-change (12 months): 1.8 (1.6-2.0) fold
- 24-h mean GH level in a person (12 months): 0.86 µg/L
- Deconvolution analysis of the increase in GH (secretion per peak vs. peak frequency): increased secretion per peak
